The EC50 is the concentration at which the effect is half-maximal.

The subject of this test is PBMCs infected with VSV-G pseudotyped HIV virus stock (VSV-G/pNLG1-P2A-AEnv). In words: cells. The format is cell-based. The conditions noted are these: Human immunodeficiency virus 1, PBMC, read-out: TACK EC50.
For `C#CCOCCO[C@H]1CCN(C2CCC([C@H](N)C(=O)N3Cc4ccccc4C3)CC2)C1` (stereo partly drawn) [Example 5], the EC50 came out at 533 nM.

Regarding `N#C[C@@H]1C[C@H](F)CN1C(=O)[C@@H](N)C1CCCCC1` [Example 4], the concentration giving a half-maximal response (EC50) came out at 314 nM.

`N[C@H](C(=O)N1Cc2ccccc2C1)C1CCCCC1` [Example 3]: the EC50 is 1410 nM.

With `N[C@H](C(=O)N1Cc2ccccc2C1)[C@H]1CC[C@@H](O)CC1` [Example 2], the EC50 is 6420 nM.

On to `N[C@H](C(=O)N1Cc2ccccc2C1)[C@H]1CC[C@H](N2CCCC2)CC1` [Example 1, (2S)-2-amino-1-(1,3-dihydroisoindol-2-yl)-2-[(1R,4S)-4-(pyrrolidin-1-yl)cyclohexyl]ethanone], for which the EC50 was found to be 211 nM.

As for `C#CCO[C@H]1CCN(C2CCC([C@H](N)C(=O)N3Cc4ccccc4C3)CC2)C1` (stereo partly drawn) [Example 6], the concentration for a half-maximal effect (EC50) turned out to be 230 nM.

Source of the values: patent US12310945B2, “Cyclohexylglycine derivatives as selective cytotoxic agents” (Merck Sharp & Dohme LLC, priority 2022, dated 2025).
